Several values for one entry are separate records, joined by “and”; a condition that tells them apart may be missing. Equal values may be shown once. Inconclusive results and toxic doses are left out.
System: CD2F1 mice, L1210 leukemia ip, survival T/C
Experiment: NCI In Vivo Anticancer Drug Screen. Data for tumor model L1210 Leukemia (intraperitoneal) in CD2F1 (CDF1) mice
Settings: higher = longer survival
Procedure, shortened: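 Vehicle-treated tumor-bearing mice served as controls (C) for compound-treated mice (T). Reported figure is T divided by C.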

[1] = endpoint: mean survival time, dose: 100.0 mg/kg/injection, schedule: Q04DX003 (ip), vehicle: saline with Tween-80
[2] = endpoint: mean survival time, dose: 100.0 mg/kg/injection, schedule: Q01DX001 (ip), vehicle: saline with Tween-80
[3] = endpoint: mean survival time, dose: 25.0 mg/kg/injection, schedule: Q01DX001 (ip), vehicle: saline with Tween-80
[4] = endpoint: mean survival time, dose: 200.0 mg/kg/injection, schedule: Q04DX003 (ip), vehicle: saline with Tween-80
[5] = endpoint: mean survival time, dose: 400.0 mg/kg/injection, schedule: Q04DX003 (ip), vehicle: saline with Tween-80
[6] = endpoint: mean survival time, dose: 6.25 mg/kg/injection, schedule: Q01DX009 (ip), vehicle: saline with Tween-80
[7] = endpoint: mean survival time, dose: 12.5 mg/kg/injection, schedule: Q01DX009 (ip), vehicle: saline with Tween-80

## c1cc[c]([Sn]([NH]c2ncnc3[nH]cnc23)([NH]c2ncnc3[nH]cnc23)[c]2ccccc2)cc1
endpoint: median survival time, dose: 12.5 mg/kg/injection, schedule: Q01DX009 (ip), vehicle: saline with Tween-80
  T/C: 102 % of control
endpoint: median survival time, dose: 12.5 mg/kg/injection, schedule: Q01DX009 (ip), vehicle: suspension in saline
  T/C: 98 % of control
endpoint: median survival time, dose: 25.0 mg/kg/injection, schedule: Q01DX009 (ip), vehicle: saline with Tween-80
  T/C: 113 % of control
endpoint: median survival time, dose: 25.0 mg/kg/injection, schedule: Q01DX009 (ip), vehicle: saline
  T/C: 154 % of control
endpoint: median survival time, dose: 25.0 mg/kg/injection, schedule: Q01DX009 (ip), vehicle: suspension in saline
  T/C: 100 % of control
endpoint: median survival time, dose: 50.0 mg/kg/injection, schedule: Q01DX009 (ip), vehicle: saline with Tween-80
  T/C: 118 % of control
endpoint: median survival time, dose: 50.0 mg/kg/injection, schedule: Q01DX009 (ip), vehicle: suspension in saline
  T/C: 102 % of control
endpoint: median survival time, dose: 100.0 mg/kg/injection, schedule: Q01DX009 (ip), vehicle: saline with Tween-80
  T/C: 112 % of control
endpoint: median survival time, dose: 100.0 mg/kg/injection, schedule: Q01DX009 (ip), vehicle: saline
  T/C: 166 % of control
endpoint: median survival time, dose: 100.0 mg/kg/injection, schedule: Q01DX009 (ip), vehicle: suspension in saline
  T/C: 102 % of control
endpoint: median survival time, dose: 200.0 mg/kg/injection, schedule: Q01DX009 (ip), vehicle: saline with Tween-80
  T/C: 86 % of control
endpoint: median survival time, dose: 200.0 mg/kg/injection, schedule: Q01DX009 (ip), vehicle: saline
  T/C: 203 % of control
endpoint: median survival time, dose: 200.0 mg/kg/injection, schedule: Q01DX009 (ip), vehicle: suspension in saline
  T/C: 112 % of control

## C/C=C(\C)C1(CCC)C(=O)NC(=S)NC1=O
endpoint: mean survival time, dose: 75.0 mg/kg/injection, schedule: Q01DX001 (ip), vehicle: other
  T/C: 106 % of control
endpoint: mean survival time, dose: 150.0 mg/kg/injection, schedule: Q01DX001 (ip), vehicle: other
  T/C: 116 % of control

## O=C(Nc1ccc(Cl)c(Cl)c1)Sc1ccc(Cl)cc1
[1]
  T/C: 105 % of control

## O=c1c2nc(-c3ccccc3)oc2ncn1C1OC(CO)C(O)C1O (configuration not stated)
endpoint: mean survival time, dose: 100.0 mg/kg/injection, schedule: Q01DX005 (ip), vehicle: saline
  T/C: 100 % of control
endpoint: mean survival time, dose: 200.0 mg/kg/injection, schedule: Q01DX005 (ip), vehicle: saline
  T/C: 98 % of control

## CCOC(=O)CC(=O)NCCc1ccccc1OC
[2]
  T/C: 102 % of control
endpoint: mean survival time, dose: 200.0 mg/kg/injection, schedule: Q01DX001 (ip), vehicle: saline with Tween-80
  T/C: 105 % of control
endpoint: mean survival time, dose: 400.0 mg/kg/injection, schedule: Q01DX001 (ip), vehicle: saline with Tween-80
  T/C: 102 % of control

## Cc1[nH]c(=S)[nH]c(=O)c1CCS
endpoint: mean survival time, dose: 100.0 mg/kg/injection, schedule: Q01DX001 (ip), vehicle: saline
  T/C: 104 % of control
endpoint: mean survival time, dose: 200.0 mg/kg/injection, schedule: Q01DX001 (ip), vehicle: saline
  T/C: 101 % of control
endpoint: mean survival time, dose: 400.0 mg/kg/injection, schedule: Q01DX001 (ip), vehicle: saline
  T/C: 98 % of control

## COc1cc(-c2ccc3cc(OC)c(OC)c(OC)c3c2)cc(OC)c1OC
endpoint: mean survival time, dose: 100.0 mg/kg/injection, schedule: Q01DX009 (ip), vehicle: saline with Tween-80
  T/C: 96 % of control
endpoint: mean survival time, dose: 200.0 mg/kg/injection, schedule: Q01DX009 (ip), vehicle: saline with Tween-80
  T/C: 98 % of control
endpoint: mean survival time, dose: 400.0 mg/kg/injection, schedule: Q01DX009 (ip), vehicle: saline with Tween-80
  T/C: 96 % of control

## O=C1/C(=C\c2ccccc2)Oc2cc(O)c(O)cc21
[3]
  T/C: 100 % of control
endpoint: mean survival time, dose: 50.0 mg/kg/injection, schedule: Q01DX001 (ip), vehicle: saline with Tween-80
  T/C: 104 % of control
[2]
  T/C: 100 % of control

## CCCCCCCCCCCCCCCCCCNC(=O)Nc1cccc(OC)c1
endpoint: mean survival time, dose: 200.0 mg/kg/injection, schedule: Q04DX002 (ip), vehicle: saline with Tween-80
  T/C: 96 % of control
endpoint: mean survival time, dose: 400.0 mg/kg/injection, schedule: Q04DX002 (ip), vehicle: saline with Tween-80
  T/C: 101 % of control

## CN1CC(O)(C(O)C(O)C(O)CO)SC1=S (configuration not stated)
endpoint: mean survival time, dose: 100.0 mg/kg/injection, schedule: Q01DX009 (ip), vehicle: saline sonified
  T/C: 98 % of control
[1]
  T/C: 100 % of control
endpoint: mean survival time, dose: 200.0 mg/kg/injection, schedule: Q01DX009 (ip), vehicle: saline sonified
  T/C: 101 % of control
[4]
  T/C: 93 % of control
endpoint: mean survival time, dose: 400.0 mg/kg/injection, schedule: Q01DX009 (ip), vehicle: saline sonified
  T/C: 109 % of control
[5]
  T/C: 89 % of control

## CN(C)CCCNc1cccc2c1C(=O)c1cccc(NCCCN(C)C)c1C2=O
endpoint: mean survival time, dose: 8.0 mg/kg/injection, schedule: Q01DX009 (ip), vehicle: acid diluted with saline
  T/C: 102 % of control
endpoint: mean survival time, dose: 16.0 mg/kg/injection, schedule: Q01DX009 (ip), vehicle: acid diluted with saline
  T/C: 102 % of control
endpoint: mean survival time, dose: 32.0 mg/kg/injection, schedule: Q01DX009 (ip), vehicle: acid diluted with saline
  T/C: 106 % of control
endpoint: mean survival time, dose: 64.0 mg/kg/injection, schedule: Q01DX009 (ip), vehicle: acid diluted with saline
  T/C: 100 % of control

## O=[N+]([O-])c1ccc(Cl)c(CNc2ncnc3c2ncn3C2CCCCO2)c1 (configuration not stated)
endpoint: mean survival time, dose: 100.0 mg/kg/injection, schedule: Q01DX009 (ip), vehicle: acetone
  T/C: 95 % of control
endpoint: mean survival time, dose: 200.0 mg/kg/injection, schedule: Q01DX009 (ip), vehicle: acetone
  T/C: 97 % of control
endpoint: mean survival time, dose: 400.0 mg/kg/injection, schedule: Q01DX009 (ip), vehicle: acetone
  T/C: 93 % of control

## O=C(N/N=C/c1ccccc1Cl)c1ccccc1
endpoint: mean survival time, dose: 100.0 mg/kg/injection, schedule: Q01DX009 (ip), vehicle: Klucel (hydroxypropylcellulose) (HPC)
  T/C: 103 % of control
endpoint: mean survival time, dose: 200.0 mg/kg/injection, schedule: Q01DX009 (ip), vehicle: Klucel (hydroxypropylcellulose) (HPC)
  T/C: 98 % of control
endpoint: mean survival time, dose: 400.0 mg/kg/injection, schedule: Q01DX009 (ip), vehicle: Klucel (hydroxypropylcellulose) (HPC)
  T/C: 107 % of control

## CCCCC(CSC#N)SC#N (configuration not stated)
endpoint: mean survival time, dose: 6.25 mg/kg/injection, schedule: Q04DX002 (ip), vehicle: saline with Tween-80
  T/C: 92 % of control
endpoint: mean survival time, dose: 12.5 mg/kg/injection, schedule: Q04DX002 (ip), vehicle: saline with Tween-80
  T/C: 88 % of control

## CN1CCC23CC=CCC2C1Cc1ccc([N+](=O)[O-])cc13 (configuration not stated)
endpoint: mean survival time, dose: 6.25 mg/kg/injection, schedule: Q01DX001 (ip), vehicle: saline with Tween-80
  T/C: 103 % of control
endpoint: mean survival time, dose: 12.5 mg/kg/injection, schedule: Q01DX001 (ip), vehicle: saline with Tween-80
  T/C: 105 % of control
[3]
  T/C: 105 % of control

## [Cl][Pt+2][Cl].[NH-]CCC([NH-])C(=O)O (configuration not stated)
endpoint: mean survival time, dose: 12.5 mg/kg/injection, schedule: Q04DX003 (ip), vehicle: saline
  T/C: 107 % of control
endpoint: mean survival time, dose: 25.0 mg/kg/injection, schedule: Q04DX003 (ip), vehicle: saline
  T/C: 121 % of control
endpoint: mean survival time, dose: 50.0 mg/kg/injection, schedule: Q04DX003 (ip), vehicle: saline
  T/C: 115 % of control

## COc1ccc([N+](=O)[O-])cc1Br
[1]
  T/C: 100 % of control
[4]
  T/C: 102 % of control
[5]
  T/C: 102 % of control

## O=c1nc(Oc2ccccc2)nc2ncccn12
endpoint: mean survival time, dose: 3.12 mg/kg/injection, schedule: Q01DX009 (ip), vehicle: saline with Tween-80
  T/C: 100 % of control and 108 % of control
[6]
  T/C: 100 % of control and 101 % of control
[7]
  T/C: 97 % of control and 101 % of control
endpoint: mean survival time, dose: 25.0 mg/kg/injection, schedule: Q01DX009 (ip), vehicle: saline with Tween-80
  T/C: 98 % of control and 99 % of control
endpoint: mean survival time, dose: 50.0 mg/kg/injection, schedule: Q01DX009 (ip), vehicle: saline with Tween-80
  T/C: 97 % of control and 102 % of control

## N#Cc1nn(C2OC(COC(=O)c3ccccc3)C(OC(=O)c3ccccc3)C2OC(=O)c2ccccc2)c2nc[nH]c(=O)c12 (configuration not stated)
endpoint: median survival time, dose: 12.5 mg/kg/injection, schedule: Q01DX005 (ip), vehicle: saline with Tween-80
  T/C: 107 % of control
endpoint: median survival time, dose: 25.0 mg/kg/injection, schedule: Q01DX005 (ip), vehicle: saline with Tween-80
  T/C: 103 % of control
endpoint: median survival time, dose: 50.0 mg/kg/injection, schedule: Q01DX005 (ip), vehicle: saline with Tween-80
  T/C: 97 % of control
endpoint: median survival time, dose: 100.0 mg/kg/injection, schedule: Q01DX005 (ip), vehicle: saline with Tween-80
  T/C: 97 % of control
endpoint: median survival time, dose: 200.0 mg/kg/injection, schedule: Q01DX005 (ip), vehicle: saline with Tween-80
  T/C: 119 % of control

## Nc1ccc(C(O)(C(F)(F)F)C(F)(F)F)c(C(=O)O)c1
endpoint: mean survival time, dose: 100.0 mg/kg/injection, schedule: Q01DX009 (ip), vehicle: other
  T/C: 106 % of control
endpoint: mean survival time, dose: 200.0 mg/kg/injection, schedule: Q01DX009 (ip), vehicle: other
  T/C: 106 % of control
endpoint: mean survival time, dose: 400.0 mg/kg/injection, schedule: Q01DX009 (ip), vehicle: other
  T/C: 102 % of control

## CC1(C)N=C(N)N=C(N)N1c1ccc(CCCCc2ccc(Cl)cc2Cl)cc1
[6]
  T/C: 98 % of control
endpoint: mean survival time, dose: 6.25 mg/kg/injection, schedule: Q04DX003 (ip), vehicle: saline sonified
  T/C: 96 % of control
[7]
  T/C: 102 % of control
endpoint: mean survival time, dose: 12.5 mg/kg/injection, schedule: Q04DX003 (ip), vehicle: saline sonified
  T/C: 98 % of control
endpoint: mean survival time, dose: 25.0 mg/kg/injection, schedule: Q04DX003 (ip), vehicle: saline sonified
  T/C: 100 % of control

Source: PubChem BioAssay AID256 (DTP/NCI, 2004)
